Usually inhibition stands for the relative decrease from the control value, in per cent.

Active and inactive are the calls of the source. The rule behind the calls is not given here.

Among the data in PubChem BioAssay AID2061108 (Research group of Professor Matthew Todd, School of …, 2025) are inhibition and haemolysis values, retold here.

Common to all, as to test: antibacterial and antifungal growth inhibition panel, profiling panel, Idler compounds, first plate, PMBN-permeabilized strains (AID 2061108)
What all share (set-up): haemolysis: dose or concentration left out as unconfirmed

Assay [1] has as its system A. baumannii ATCC 17978 growth inhibition, 100 uM. The settings on record: S. aureus ATCC 9144 growth inhibition; measured here: A. baumannii ATCC 17978; at 100 µM; stronger effect = higher value.
Assay [2] concerns S. aureus ATCC 9144 growth inhibition, 100 uM. As to conditions: S. aureus ATCC 9144 growth inhibition; at 100 µM; stronger effect = higher value.
Assay [3] has as its system A. baumannii ATCC 17978 + PMBN growth inhibition, 100 uM. The settings on record: A. baumannii plus PMBN growth inhibition, 100 µM; stronger effect = higher value.
Assay [4] concerns red blood cell haemolysis. The settings on record: stronger effect = higher value; dose or concentration not given here.
Assay [5] relates to C. albicans NCPF 3281 growth inhibition, 100 uM. As to conditions: S. aureus ATCC 9144 growth inhibition; measured here: C. albicans NCPF 3281; at 100 µM; stronger effect = higher value.
Assay [6] concerns M. abscessus growth inhibition, 10 uM. As to conditions: S. aureus ATCC 9144 growth inhibition; measured here: M. abscessus; at 10 µM.
Assay [7] relates to E. coli NCTC 12923 growth inhibition, 100 uM. The settings on record: E. coli NCTC 12923 growth inhibition, 100 µM; stronger effect = higher value.
In assay [8] the test system is E. coli NCTC 12923 + PMBN growth inhibition, 100 uM. As to conditions: S. aureus ATCC 9144 growth inhibition; measured here: E. coli plus PMBN; at 100 µM; stronger effect = higher value.
In assay [9] the test system is M. avium growth inhibition, 10 uM. As to conditions: M. avium growth inhibition, 10 µM.

With `O=c1[nH]c(=O)c2cc(S(=O)(=O)Nc3cc(F)c(NCCN4CCOCC4)c(F)c3)ccc2[nH]1`, the inhibition in assay [1] was -1.9%; in [2], 17.7% (inactive); in [3] it was 12%; in assay [5], -21.1%; in [6], -0.977%; in [7] it was -4.32%. For the same molecule, the inhibition is 0.988% in assay [8] and -0.106% in assay [9]. In assay [4], the haemolysis was -0.0292%.
Consider `CC1=CC(=O)C=C(C)C1=NOS(=O)(=O)c1ccc(Cl)cc1`, for which the inhibition in assay [1] is -15.4%; in [2], 98.2%; in assay [3], -8.84%; in assay [5], -1.74%; in assay [6], -0.716%; in [7], -42.6%. Moreover, the results for the inhibition in [8] and in [9] were -20.5% and -0.499%, respectively. Moreover, the haemolysis in assay [4] was found to be 0.0834%.
Take `O=C(Nc1ccc(Oc2ccccc2)cc1)c1cccc(-c2nn[nH]n2)c1`: the inhibition in [1] is -3.57%; in assay [2], 9.5% (inactive); in assay [3] it was 18.8%; in assay [5], -19%; in [6], -0.704%; in assay [7] it was -9.59%. The inhibition in assay [8] was 5.93%; in [9], 0.254%. For the same molecule, the haemolysis in assay [4] came out at 1.82%.
For `COc1cc2nc(NCCCN(C)C)nc(N3CC(N(C)C)C3)c2cc1OC`, the inhibition in assay [1] was 17.3%; in assay [2] it was 37.5% (inactive); in assay [3] it was 29.9%; in assay [5], -118%; in assay [6], 1.59%; in [7], 11.5%. In addition, the values for the inhibition in assay [8] and in assay [9] were 2.07% and 5.58%, respectively. Also, the haemolysis in [4] was found to be 0.15%.
For the molecule `O=C(NC1(c2ccc(Cl)cc2)COC1)c1ccc(N2CCCCC2)cc1`, the inhibition is -22.2% in assay [1]; 4.21% (inactive) in assay [2]; 13.9% in [3]; -54.3% in assay [5]; -0.149% in assay [6]; -30% in assay [7]. In addition, the inhibition in assay [8] is -14%; in assay [9], 0.252%. Moreover, the haemolysis in assay [4] came out at 0.302%.
Consider `N#Cc1c(NC[C@H]2CCCN2)nc2ccccc2c1C(F)(F)F`, for which the inhibition in [1] is 9.76%; in assay [2], 99.7%; in assay [3], 53.6%; in [5] it was -78.9%; in assay [6] it was -1.13%; in [7], 12.8%. In addition, the values for the inhibition in assay [8] and in [9] were 17.7% and -0.31%, respectively. In assay [4], the haemolysis stood at 0.41%.
Turning to `N#Cc1c(N2C[C@@H](CC(N)=O)[C@H](O)C2)nc2ccccc2c1C(F)(F)F`, the inhibition in assay [1] is -4.88%; in assay [2] it was 9.67% (inactive); in assay [3], 28.3%; in [5], -24.4%; in [6], -0.687%; in assay [7], 0.811%. Moreover, the inhibition worked out at 11.6% in assay [8] and 0.858% in assay [9]. Also, the haemolysis in assay [4] worked out at 0.173%.
For `C=CC(=O)N1CCC[C@H](CC(=O)O)C1`, the inhibition in [1] was 0%; in assay [2], 14.4% (inactive); in [3] it was 22.4%; in [5], -64.4%; in [6], -0.00311%; in assay [7] it was -6.76%. Moreover, the inhibition in assay [8] was determined as 5.85%; in assay [9], 0.225%. Further, in [4], the haemolysis is -0.0261%.
As to `COc1ccc(/C=C(\C#N)S(=O)(=O)c2ccccc2)cc1OC`, the inhibition in assay [1] was 0.595%; in [2], 16.3% (inactive); in assay [3], 12.6%; in assay [5], -60.8%; in assay [6], -0.905%; in assay [7] it was -0.135%. Further, the inhibition in assay [8] was 3.58%; in assay [9], -0.352%. Moreover, the haemolysis in [4] amounted to 2.6%.
As for `COc1cc2nc(Nc3cc(C)[nH]n3)nc(Nc3cc(C)[nH]n3)c2cc1OC`, the inhibition in [1] was 18.8%; in assay [2], 37.5%; in assay [3], 19.6%; in assay [5], 84.2%; in assay [6], 0.769%; in [7], 12.7%. Also, the figures for the inhibition in assay [8] and in assay [9] were 49.1% and 1.15%, respectively. In addition, the haemolysis in assay [4] is 0.208%.
Take `Cc1ccc(CN2C(=O)NC3(CCN(C(=O)C(C)Oc4ccccc4)CC3)C2=O)cc1` (stereo not given): the inhibition in assay [1] was -7.26%; in assay [2], 8.83% (inactive); in assay [3], 22.5%; in assay [5], -57.6%; in [6], -1.03%; in assay [7], -2.03%. For the same molecule, the inhibition in assay [8] is 22.5%; in assay [9], -0.615%. Further, the haemolysis in assay [4] is -0.00857%.
For `NC(=O)CSc1nnc(COc2ccccc2)n1-c1ccccc1`, the inhibition in assay [1] is 0.843%; in [2], 15.3% (inactive); in assay [3], 23.4%; in assay [5], -39.3%; in assay [6], 0.484%; in [7], -3.24%. Also, the inhibition in assay [8] was 2.8%; in assay [9] it was 0.364%. Besides, the haemolysis in assay [4] was 0.123%.
Turning to `Cc1ncsc1CCCN(C)c1cnc(S(=O)(=O)F)c(Br)c1`, the inhibition in assay [1] is -2.86%; in [2], 16.7% (inactive); in [3] it was 21.9%; in assay [5], -94.3%; in assay [6], -0.937%; in assay [7], 1.49%. In addition, the inhibition was 0.37% in assay [8] and 0.0507% in assay [9]. In addition, the haemolysis in assay [4] was determined as 0.616%.
On to `CCS(=O)(=O)c1ccc(CNc2nc3ccccc3cc2C#N)s1`, for which the inhibition was -4.82% in [1]; 22.3% (inactive) in [2]; 28.4% in assay [3]; -73.7% in [5]; 0.173% in assay [6]; -13.4% in [7]. The inhibition in assay [8] is -0.61%; in assay [9], -0.121%. In [4], the haemolysis came to 0.247%.
`COc1ccc(-c2ccc(CNc3ccnc(S(=O)(=O)F)c3)s2)cc1`: the inhibition in assay [1] is 8.21%; in assay [2] it was 24.7%; in [3], 38%; in assay [5], 98.4%; in [6] it was -0.879%; in assay [7], 5.81%. The inhibition in assay [8] is 14.7%; in [9], -0.555%. Moreover, the haemolysis in [4] stood at 2.61%.
As for `N#Cc1ccc(NC2Cc3cccc(O)c3C2)cc1Cl` (stereo not given), the inhibition is 65.2% in assay [1]; 100% in assay [2]; 101% in [3]; 100% in assay [5]; -0.909% in assay [6]; 25% in assay [7]. Further, the inhibition in assay [8] was found to be 101%; in [9], 0.34%. The haemolysis in [4] was 0.539%.
In the case of `COC(=O)c1ccc(C2CN(c3ccnc(S(=O)(=O)F)c3)C2)nc1`, the inhibition in [1] was 0.357%; in assay [2] it was 16.7% (inactive); in assay [3] it was 22.5%; in assay [5], -28.7%; in [6], -1.03%; in assay [7], 1.62%. The inhibition in [8] stood at 11.4%; in assay [9], 0.0988%. In addition, the haemolysis in assay [4] is -0.16%.
On to `COc1ccc2c(c1)nc(-c1c[nH]c3ccc(N4CCSCC4)cc13)c1[nH]ccc12`, for which the inhibition in [1] was 98.1%; in assay [2] it was 98.1%; in assay [3], 96.3%; in [5], 95%; in assay [6] it was 0.136%; in assay [7], 9.46%. The inhibition was found to be 97% in assay [8] and 3% in [9]. Moreover, the haemolysis in assay [4] worked out at 1.04%.
On to `CCOc1ccc(-c2cc(=O)n(CC(=O)N3CCC(Cc4ccccc4)CC3)cn2)cc1`, for which the inhibition in assay [1] was -13.5%; in assay [2], 5.33% (inactive); in assay [3], 11%; in assay [5] it was -40.2%; in assay [6] it was -1.03%; in assay [7] it was -16.4%. For the same molecule, the inhibition stood at 4.32% in assay [8] and 0.214% in [9]. In addition, the haemolysis in assay [4] came out at 2.13%.
For the molecule `N#CC1(c2cccc(-c3cccc4c3CCOC4C(=O)O)c2)CC1` (stereo not given), the inhibition in assay [1] was -4.34%; in assay [2] it was -2.28% (inactive); in assay [3], 20.9%; in assay [5], -60.5%; in assay [6], 0.107%; in assay [7] it was -6.62%. For the same molecule, the figures for the inhibition in assay [8] and in assay [9] were -11.3% and -1.43%, respectively. Besides, in assay [4], the haemolysis is 0.0202%.
